{
  "source": "patent US8921373B2",
  "about": "“Compounds having TRPV1 antagonistic activity and uses thereof” (Shionogi & Co., Ltd., priority 2010, dated 2014)",
  "key": {"[1]": {"target": "human recombinant TRPV1 (Homo sapiens (Human), UniProt Q8NER1)", "sequence (Q8NER1 whole entry)": "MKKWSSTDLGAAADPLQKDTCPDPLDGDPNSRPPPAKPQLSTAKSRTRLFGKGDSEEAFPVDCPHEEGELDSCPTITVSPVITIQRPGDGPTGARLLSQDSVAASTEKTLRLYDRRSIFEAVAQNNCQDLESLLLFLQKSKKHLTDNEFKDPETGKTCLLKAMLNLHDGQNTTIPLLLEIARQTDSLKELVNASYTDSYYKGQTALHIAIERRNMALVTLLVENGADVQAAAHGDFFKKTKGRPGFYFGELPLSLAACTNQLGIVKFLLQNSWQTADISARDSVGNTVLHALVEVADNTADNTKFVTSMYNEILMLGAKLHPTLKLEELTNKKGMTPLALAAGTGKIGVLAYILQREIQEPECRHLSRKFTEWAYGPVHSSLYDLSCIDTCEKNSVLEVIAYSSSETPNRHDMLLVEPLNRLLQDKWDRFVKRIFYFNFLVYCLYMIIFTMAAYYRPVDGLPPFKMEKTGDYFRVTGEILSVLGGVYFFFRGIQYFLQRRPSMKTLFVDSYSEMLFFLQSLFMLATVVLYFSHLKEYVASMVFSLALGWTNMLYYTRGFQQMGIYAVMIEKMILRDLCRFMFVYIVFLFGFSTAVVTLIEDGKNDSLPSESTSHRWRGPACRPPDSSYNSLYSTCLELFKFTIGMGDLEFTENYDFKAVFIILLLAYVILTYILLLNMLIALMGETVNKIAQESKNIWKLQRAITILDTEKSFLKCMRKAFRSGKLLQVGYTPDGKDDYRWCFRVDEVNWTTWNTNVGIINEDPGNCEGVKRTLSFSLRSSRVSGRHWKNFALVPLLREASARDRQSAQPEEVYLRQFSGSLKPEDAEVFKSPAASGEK", "experiment": "TRPV1 pH-Based Assay (Protocol 2, Ca2+ response in TRPV1/CHO cells, Fura-2)", "format": "cell-based", "settings": "TRPV1/CHO cells, pH 5.0-5.1; read-out: IC50 value by the pH-Based Assay", "outline": "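CHO cells stably expressing human TRPV1, Fura-2 loaded, given compound (1% DMSO in 10× stock) before acid challenge to final pH 5.0-5.1 (3.2 or 3.3 mM H2SO4). 340/380 nm ratio recorded at 0.5 Hz; maximal ratio after agonist addition versus 16-point baseline used as response.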"}, "[2]": {"test_system": "FCA-induced inflammation of the rat hind paw", "experiment": "Freund's complete adjuvant (FCA) model of inflammatory pain, reversal of hyperalgesia", "format": "in vivo", "settings": "rats", "description": "Test Animals: Each experiment uses rats weighing between 200-260 g at the start of the experiment. The rats are group-housed and have free access to food and water at all times, except prior to oral administration of a compound of Formula I when food is removed for 16 hours before dosing. A control group acts as a comparison to rats treated with a compound of Formula I. The control group is administered the carrier for the compound of Formula I. The volume of carrier administered to the control group is the same as the volume of carrier and compound of Formula I administered to the test group.\nInflammatory Pain: To assess the actions of the compounds of Formula I on the treatment or prevention of inflammatory pain the Freund's complete adjuvant (“FCA”) model of inflammatory pain is used. […] 24 hour post injection, the animal is assessed for response to noxious mechanical stimuli by determining the PWT, or to noxious thermal stimuli by determining the PWL, as described below. […] Responses to noxious mechanical or thermal stimuli are then determined 1, 3, 5 and 24 hours post administration. […]\nResponse to Mechanical Stimuli as an Assessment of Mechanical Hyperalgesia: The paw pressure assay can be used to assess mechanical hyperalgesia. For this assay, hind paw withdrawal thresholds (PWT) to a noxious mechanical stimulus are determined using an analgesymeter (Model 7200, commercially available from Ugo Basile of Italy) as described in C. […] PWT is determined once for each rat at each time point and only the affected (ipsilateral) paw is tested.\nResponse to Thermal Stimuli as an Assessment of Thermal Hyperalgesia: The plantar test can be used to assess thermal hyperalgesia. For this test, hind paw withdrawal latencies (PWL) to a noxious thermal stimulus are determined using a plantar test apparatus (commercially available from Ugo Basile of Italy) following the technique described by K. Hargreaves et al., “A New and Sensitive Method for Measuring Thermal Nociception in Cutaneous Hyperalgesia,” Pain 32(1):77-88 (1988). […] Three latencies are determined at each time point and averaged. […]"}},
  "data": [
    {"smiles": "Cc1cc(NC(=O)N2CCC(F)(c3ncc(C[C@H](O)CO)cc3F)CC2)ccc1C(F)(F)F", "note": "[ACQ, (S)-4-(5-(2,3-dihydroxypropyl)-3-fluoropyridin-2-yl)-4-fluoro-N-(3-methyl-4-(trifluoromethyl)phenyl)piperidine-1-carboxamide]", "values": [
      {"measurement": "IC50", "setting": "[1]", "value": "≤ 50", "unit": "nM"},
      {"measurement": "Percentage reversal of hyperalgesia, % Reversal (3 mg/Kg, 3 hours post administration)", "setting": "[2]", "value": 41.7, "unit": "%"}
    ]}
  ]
}
